Test results reported in publication PMC9659204, “Biochemical Characterization of Pyranose Oxidase from Streptomyces canus—Towards a Better Understanding of Pyranose Oxidase Homologues in Bacteria” (International Journal of Molecular Sciences, 2022).

Tested on: T1, ScPOx (pyranose oxidase from Streptomyces canus)
T1 construct: synthetic codon-optimised gene in pET-21d+ (NcoI/HindIII), C-terminal His6 tag, E. coli BL21(DE3); 52 kDa monomer, noncovalent FAD
Experiment: steady-state kinetics, spectrophotometric
Type: biochemical
Conditions: apparent; electron acceptor; 4 M D-xylose as electron donor; 50 mM potassium phosphate pH 6.5; 30 °C
Text: steady-state kinetics, spectrophotometric on ScPOx (pyranose oxidase from Streptomyces canus)

Compound	Km [µM]
O=C1C(Cl)=CC(=Nc2ccc(O)cc2)C=C1Cl [DCIP]	50 ± 10
O=C1C=CC(=O)C=C1 [p-BQ]	130 ± 20
